Data published in paper PMC2270722, “Influence of Cocoa Flavanols and Procyanidins on Free Radical-induced Human Erythrocyte Hemolysis” (Clinical and Developmental Immunology, 2005).

Assays:
[1] = antioxidant activity (preliminary, unpublished); settings: preliminary work, unpublished data
[2] = tested on: human erythrocytes; test: in vitro AAPH-induced erythrocyte hemolysis, percent inhibition by purified flavonoids; assay type: cell-based; design: level of protection compared with ascorbic acid: dose or concentration left out as unconfirmed; settings: for level of protection compared with ascorbic acid: Figure 3; for protection of human erythrocytes from free radical-induced hemolysis at lowest concentration: concentration as low as 2.5 mM; for protection against AAPH-induced erythrocyte hemolysis: concentrations 2.5 to 20 μM, 200 mM AAPH, 3 h
From the text: (§1) Influence of cocoa flavanols and procyanidins on free radical-induced human erythrocyte hemolysis QIN YAN ZHU1 , DEREK D. SCHRAMM1 , HEIDRUN B. GROSS1 , ROBERTA R. HOLT1 , SUN H. KIM3 , TOMOKO YAMAGUCHI4 , CATHERINE L. KWIK-URIBE5 , & CARL L. KEEN1,2 1 Department of Nutrition, University of California, One Shields Avenue, Davis, CA 95616-8669, 2 Internal Medicine, University of California, One Shields Avenue, Davis, CA 95616-8669, 3 Department of Food Service Management and Nutrition, Kongju National University, Republic of Korea, 4 Department of Food Science and Nutrition, Nara Women's University, Japan, and 5 Analytical & Applied Sciences, Mars Incorporated, Hackettstown, NJ, USA Abstract Cocoa can be a rich source of antioxidants including the flavan-3-ols, epicatechin and catechin, and their oligomers (procyanidins). While these flavonoids have been reported to reduce the rate of free radical-induced erythrocyte hemolysis in experimental animal models, little is known about their effect on human erythrocyte hemolysis. The major objective of this work was to study the effect of a flavonoid-rich cocoa beverage on the resistance of human erythrocytes to oxidative stress. A second objective was to assess the effects of select purified cocoa flavonoids, epicatechin, catechin, the procyanidin Dimer B2 and one of its major metabolites, 30 -O-methyl epicatechin, on free radical-induced erythrocyte hemolysis in vitro. Peripheral blood was obtained from 8 healthy subjects before and 1, 2, 4 and 8 h after consuming a flavonoid-rich cocoa beverage that provided 0.25 g/kg body weight (BW), 0.375 or 0.50 g/kg BW of cocoa. Plasma flavanol and dimer concentrations were determined for each subject. Erythrocyte hemolysis was evaluated using a controlled peroxidation reaction. Epicatechin, catechin, 30 -O-methyl epicatechin and (-)-epicatechin-(4b . 8)-epicatechin (Dimer B2) were detected in the plasma within 1 h after the consumption of the beverage. […] The duration of the lag time, which reflects the capacity of cells to buffer free radicals, was increased. […] Erythrocytes from subjects consuming flavonoid-rich cocoa show reduced susceptibility to free radical-induced hemolysis p , 0:05. Keywords: Cocoa, flavanol, membrane oxidation, erythrocyte,-catechin, 3 0 -O-methyl epicatechin Introduction Flavonoids are a diverse group of polyphenolic compounds occurring in fruit, vegetables, tea and red wine. Diets rich in these compounds have been associated with a reduced risk for cardiovascular disease (Knekt et al. 2002, Kris-Etherton et al. 2004, Mennen et al. 2004, Morton et al. 2000, Sagara et al. 2004, Sesso et al. 2003). Depending on their processing, cocoa and chocolate can be rich sources of flavonoids, particularly the subclass of oligomeric flavonoids known as procyanidins (Adamson et al. 1999, Sanchez-Rabaneda et al. 2003, Steinberg et al. 2003) (Figure 1). Flavanols and procyanidins isolated from cocoa and chocolate have received considerable attention over the last several years as potential cardiovascular protective agents with putative positive effects on platelet function, blood pressure regulation, nitric oxide production, oxidative defense and the immune system (Heiss et al. 2003, Maron, 2004; Fisher et al. 2003; Pearson et al. 2002, Sadik et al. 2003, Taubert et al. 2003, Wan et al. 2001). ISSN 1740-2522 print/ISSN 1740-2530 online q 2005 Taylor & Francis Group Ltd. DOI: 10.1080/17402520512331329514 Correspondence: Carl L. Keen, Department of Nutrition, University of California, One Shields Avenue, Davis, CA 95616-8669. Tel: 1 530 752 6331. Fax: 1 530 752 8966. E-mail: clkeen@ucdavis.edu Clinical & Developmental Immunology, March 2005; 12(1): 27-34 These compounds can modulate the actions of oxidant-responsive transcription factor NF-kB (Mackenzie et al. 2004), and diets rich in cocoa flavonoids may be associated with reductions in DNA oxidative damage (Orozco et al. 2003). […]

[3] = plasma flavanol and dimer concentrations by HPLC after cocoa beverage; assay type: in vivo, human; settings: for time by which detected in the plasma: after consumption of the cocoa beverage, human subjects; for concentration in human plasma reached: after high dose of cocoa (0.50 g/kg BW)
From the text: as §1

Molecule | antioxidant activity compared with Dimer B2 [1] | level of protection compared with ascorbic acid [2] | protection of human erythrocytes from free radical-induced hemolysis at lowest concentration [2] | protection against AAPH-induced erythrocyte hemolysis [2] | time by which detected in the plasma [3] [h] | concentration in human plasma reached [3] | protection compared with Dimer B2 ([2]; individual compounds in vitro)
Oc1cc(O)c2c(c1)O[C@H](c1ccc(O)c(O)c1)[C@H](O)[C@H]2c1c(O)cc2c(c1O)C[C@@H](O)[C@@H](c1ccc(O)c(O)c1)O2 [Dimer B5, epicatechin-(4b . 6)-epicatechin] | more antioxidant activity than Dimer B2 | – | – | – | – | – | –
O.Oc1cc(O)c2c(c1)O[C@H](c1ccc(O)c(O)c1)[C@@H](O)C2 [catechin] | – | exceeded that of ascorbic acid | significantly protect | dose-dependent protection | ≤ 1 | 210 nm | –
Oc1cc(O)c2c(c1)O[C@H](c1ccc(O)c(O)c1)[C@H](O)C2 [epicatechin, (-)-epicatechin] | – | exceeded that of ascorbic acid | significantly protect | dose-dependent protection | ≤ 1 | 2860 nM | stronger protection than Dimer B2
COc1cc([C@H]2Oc3cc(O)cc(O)c3C[C@H]2O)ccc1O [3ʹ-O-methyl epicatechin] | – | exceeded that of ascorbic acid | significantly protect | dose-dependent protection | ≤ 1 | – | –
(-)-epicatechin-(4β > 8)epicatechin [Dimer B2] | – | exceeded that of ascorbic acid | – | dose-dependent protection | ≤ 1 | – | –
